The numbers were not newly measured in US10156556B2, “Method for determining ecological risks of polycyclic aromatic hydrocarbon in water body” (priority 2013, dated 2018), which cites them from elsewhere.

For the data set the following is noted: relative to benzoapyrene; Nisbet and Lagoy 1992; cited from earlier work.

As for `c1ccc2c(c1)-c1cccc3cccc-2c13` [Flu], the Toxic equivalency factor is 0.001.
